Test results published in patent publication US5506204A, “Muramyl compounds for treatment of septic shock” (Peptech (UK) Limited, priority 1991, dated 1996).

Tests used:
IL-1 = assay: Example 6: IL-1 production by peritoneal macrophages in response to LPS; assay type: in vivo, BALB/c mice; settings: 2 injections 12 hours apart; macrophages stimulated with LPS 25 μg/ml 24 hours; thymocyte co-stimulation bioassay; FIG. 4
Protocol: Mice (BALB/c, female) 13-14 g, 5 animals in each group, received 2 injections of MDPs, 12 hours apart. The MDPs tested were MDP, muroctasin, MDP-Thr, MDP-OBu, GMDP-LL, GMDP-Lys(St) and GMDP-A. After the last injection, peritoneal cells were collected and the induction of IL-1 secretion by peritoneal macrophages was tested.
Macrophages were collected from the peritoneal cavity of mice by lavage with Hank's balanced salt solution. After washing the cells, they were then placed in wells of flat-bottomed 96-well plates and incubated at 37° C. for 1 hour in RPMI containing 5% FCS. The plates were then washed with warm RPMI to remove non-adhering cells. LPS (25 μg/ml) was then added in fresh culture medium and the plates were further cultured for 24 hours.
Production of IL-1 by peritoneal macrophages was assayed by thymocyte co-stimulation bioassay. Thymocytes from (CBA*C57BL.6)F1 mice (106), PHA (1 μg.ml), and the tested supernatant (50 μl) were placed into the wells of flat-bottomed 96-well plates. Thymocyte proliferation rate was measured 72 hours later by the incorporation of 3H TdR (1 μCi.well) during 6 hours prior to culture termination.

TNFα = assay: Example 8: TNF induction by muramyl peptides; assay type: in vivo, BALB/c mice; settings: C. parvum-primed mice, 100 μg (equimolar) IP, LPS 25 μg 18 hours later; FIG. 6
Protocol: Here, the muramyl peptides tested were prototype MDP, GMDP, GMDP-A, GMDP-OBu, GMDP-Lys(St), GMDPA-Lys(St), GMDP-Benz and Thr-MDP.
(§1) BALB/mice (6 mice/groups) were injected intraperitoneally with 1.4 mg of dead C. parvum (0.2 ml of a 7 mg/ml suspension). Mice were subsequently (2 weeks later) treated with saline, MDP (100 μg) or analogue (100 μg) in 0.5 ml saline IP. The dose of each `MDP` was adjusted so that animals received equimolar amounts. LOS (25 μg) was injected 18 hours after the injection of MDP/analogue and the mice were subsequently sacrificed and bled out. TNF was determined by standard capture ELISA assay.

serum TNF = assay: Example 7: LPS induction of serum TNF; assay type: in vivo, BALB/c mice; settings: C. parvum-primed mice, 100 μg (equimolar) IP, LPS 25 μg 18 hours later; FIG. 5
Protocol: as §1, with “In this experiment, 4 compounds were tested and these are: MDP, GMDP-A, GMDP-OBu and GMDP. Saline was administered to control mice. BALB/c mice” for “BALB/mice”, “mice/group)” for “mice/groups)”, “suspension.).” for “suspension).”, “LPS” for “LOS”, “and” for “and the”

Pyrogenicity = settings: in vivo
Protocol: The expression "non pyrogenic or of low pyrogenicity" refers to a compound which induces an increase in temperature of an adult human of less than half a degree following the administration of 1 to 2 mg of the compound.
First, muramyl peptide compounds useful in the invention may be non-pyrogenic. Pyrogenicity may be simply measured by methods well known in the art.

[1] = system: LPS-induced mortality in mice; assay: Example 3: LPS-induced mortality in mice; assay type: in vivo, BALB/c mice; settings: i.p. twice daily 100 μg or molar equivalent per mouse for 9 days before 300 μg LPS; mortality 2 days after LPS; FIG. 1
Protocol: 25 female BALB/c mice weighing 16-18 g each were divided into 5 groups, each group containing 5 animals. Each group of mice received twice-daily doses of saline, GMDP, GMDP-OBu, MDP or GMDP-A. The compounds were administered by intra-peritoneal injection in twice-daily doses of 100 μg or the molar equivalent per mouse during a 9-day period before the injection of 300 μg LPS per mouse. […] Thus GMDP and GMDP-A would be useful in the treatment and prevention of sepsis and septic shock, whereas MDP and GMDP-OBu would not.

| Molecule | suppression of IL-1 production (IL-1) | effect on LPS-induced TNFα production (TNFα) | effect on LPS induction of serum TNF (serum TNF) | pyrogenicity (Pyrogenicity) | effect on LPS-induced mortality [1] |
| --- | --- | --- | --- | --- | --- |
| CCCCOC(=O)[C@@H](CCC(N)=O)NC(=O)[C@H](C)NC(=O)[C@@H](C)O[C@H]1[C@H](O)[C@@H](CO)OC(O)[C@@H]1NC(C)=O (stereo partly drawn) [MDP-OBu, N-acetylmuramyl-L-alanyl-D-glutamine-α-N-butyl ester, reference compound] | suppress the IL-1 response to LPS |  |  |  |  |
| N*-[N-Acetyl-D-glucosaminyl-(β1-4)-N-acetyl-muramyl-L-alanyl-γ-D-glutamyl]-N*-stearoyl-L-lysine [GMDPA-Lys(St)] |  | enhance LPS-induced TNF production |  |  |  |
| N*-[N-acetyl-D-glucosaminyl-(β1-4)-N-acetylmuramyl-L-alanyl-D-isoglutaminyl]-N*-stearoyl-L-lysine [GMDP-Lys(St)] | suppress the IL-1 response to LPS | enhance LPS-induced TNF production |  |  |  |
| N-acetyl-D-glucosaminyl-(β1-4)-N acetylmuramyl-L-alanyl-D-glutamine n-butyl ester [GMDP-OBu] |  | consistently failed to synergise with LPS |  |  |  |
| N-acetyl-D-glucosaminyl-(β1-4)-N-acetylmuramyl-L-alanyl-D-glutamicacid [GMDP-A] | suppress the IL-1 response to LPS |  | pro-inflammatory, causing an enhancement of the TNF levels induced by LPS | even less pyrogenic analogue | antagonise the effect of LPS |
